We go through 17 compounds from patent EP1614683B1, “Indazole compounds and pharmaceutical compositions for inhibiting protein kinases, and methods for their use” (priority 1999, dated 2001).

As a reminder, the inhibition is the relative decrease from the control value, in per cent. As usually defined, the IC50 is the concentration at which inhibition is half-maximal.

Read-outs that look alike come from different tables or passages of the source.

One data set deals with T1, human FAK (FAKcd409) (Homo sapiens, UniProt Q05397, P410T).
T1 construct: comprises residues methionine 409 to glutamate 689; made in house; host or cells: baculovirus vector expression system (insect cells)
T1 sequence (Q05397 409-689 P410T): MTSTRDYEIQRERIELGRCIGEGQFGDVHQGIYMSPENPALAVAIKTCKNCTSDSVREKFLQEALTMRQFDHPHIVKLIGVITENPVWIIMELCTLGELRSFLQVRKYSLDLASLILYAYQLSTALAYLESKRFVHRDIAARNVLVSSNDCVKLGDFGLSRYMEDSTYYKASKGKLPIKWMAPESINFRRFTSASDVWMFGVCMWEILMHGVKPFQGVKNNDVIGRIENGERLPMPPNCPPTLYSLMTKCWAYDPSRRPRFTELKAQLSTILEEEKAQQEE
In words: FAK fluorescence polarization assay. The format is biochemical. To be noted: Table 5; 1 µM; read-out: % Inhibition @ 1 µM FAK. On the procedure: FAK Construct for Assay. The catalytic domain of human FAK (FAKcd409) was expressed using the baculovirus vector expression system. […] The protein was purified using classical chromatography techniques.
FAK HTS utilized the fluorescence polarization assay provided by LJL Biosystems. The kinase reaction contained: 100mM Hepes pH 7.5, 10mM MgCl2, 1mM DTT, 1mM ATP, and 1mg/ml poly Glu-Tyr (4: 1). The reaction is initiated by the addition of 5nM FAKcd409. The reaction is terminated by the addition of EDTA followed by addition of fluor-labelled peptide and anti-phosphotyrosine antibody, both provided by LJL Biosystems. Inhibition results are read on a Analyst (LJL) detector.

For a further data set, the target named is CDK2/Cyclin A complex (Homo sapiens, UniProt P24941). The data set can be described thus: CDK2/Cyclin A assay ([32P]ATP incorporation into Rb fragment). The format is biochemical. The settings on record: read-out: CDK2 * (% inhibition).
The next data set can be described thus: in vitro. The format is in vitro ADME, human. To be noted: human liver microsomes, 5 µM test compound, 37 °C, 2 h. A digest of the protocol: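 HLM diluted to 5 mg/mL in 100 mM KPO4, preincubated 10 min at 37 °C with NADPH-regenerating system. Compound (5 µM final) incubated at 37 °C in triplicate, sampled at 0 and 2 h into ice-cold acetonitrile, then LC-MS analysis.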
For orientation: Liver microsomes are vesicles of endoplasmic reticulum, rich in cytochrome P450 enzymes.

The target of the next data set is T2, human CHK1 (FL-CHK1) (Homo sapiens, UniProt O14757).
T2 construct: C-terminally His-tagged full-length human CHK1 (FL-CHK1) was expressed using the baculovirus/insect cell system; made in house; host or cells: baculovirus/insect cell system
T2 sequence (O14757 1-476): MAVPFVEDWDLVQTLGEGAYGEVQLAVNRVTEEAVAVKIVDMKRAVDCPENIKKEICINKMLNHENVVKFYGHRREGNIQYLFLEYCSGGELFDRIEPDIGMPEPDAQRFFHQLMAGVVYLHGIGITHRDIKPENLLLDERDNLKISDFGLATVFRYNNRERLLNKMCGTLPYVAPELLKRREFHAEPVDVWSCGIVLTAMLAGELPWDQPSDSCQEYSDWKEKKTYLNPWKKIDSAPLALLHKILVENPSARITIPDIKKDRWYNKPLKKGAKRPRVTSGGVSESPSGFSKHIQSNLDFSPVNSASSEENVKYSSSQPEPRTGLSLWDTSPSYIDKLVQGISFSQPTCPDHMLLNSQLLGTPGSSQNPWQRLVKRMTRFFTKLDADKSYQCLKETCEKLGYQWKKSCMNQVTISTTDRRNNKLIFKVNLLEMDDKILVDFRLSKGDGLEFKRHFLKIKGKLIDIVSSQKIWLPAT
The data set can be described thus: CHK1 coupled spectrophotometric assay. The format is biochemical. The settings on record: read-out: CHK -1* (% inhibition). A digest of the protocol: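 His-tagged full-length human CHK1 from baculovirus/insect cells, 10 nM, phosphorylating Syntide-2. ADP formation coupled via PK/LDH with PEP to NADH oxidation, followed as absorbance decrease at 340 nm. Ki from initial rates at varying compound concentrations.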

A further data set deals with LCK tyrosine kinase (Homo sapiens, UniProt P06239, C224D/P223M). In words: LCK spectrophotometric assay. The format is biochemical. The settings on record: Table 1; compound concentration 1 µM; read-out: Lck-P* (% inhibition). The method, then: The spectrophotometric assay was carried out as described above for VEGF-R2, except for the following changes in concentration: LCK = 60 nM, MgCl2 = 0 mM, poly(E4Y1) = 20 mM.
Sequence of LCK tyrosine kinase (P06239 223-509 P223M/C224D): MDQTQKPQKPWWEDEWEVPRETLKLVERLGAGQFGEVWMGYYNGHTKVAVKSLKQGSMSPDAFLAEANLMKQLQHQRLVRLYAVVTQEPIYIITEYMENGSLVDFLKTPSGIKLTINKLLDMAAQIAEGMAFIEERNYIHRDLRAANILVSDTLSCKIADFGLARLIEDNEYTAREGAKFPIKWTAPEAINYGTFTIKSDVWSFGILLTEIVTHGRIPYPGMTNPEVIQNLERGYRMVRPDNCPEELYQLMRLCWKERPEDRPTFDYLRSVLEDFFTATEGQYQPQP

The target of data set [1] is T3, phosphorylated Tie-2 (aa 775-1122) (Homo sapiens, UniProt Q02763).
T3 construct: 4 to 12 nM phosphorylated Tie-2 (aa 775-1122); made in house; host or cells: insect cells
T3 sequence (Q02763 775-1122): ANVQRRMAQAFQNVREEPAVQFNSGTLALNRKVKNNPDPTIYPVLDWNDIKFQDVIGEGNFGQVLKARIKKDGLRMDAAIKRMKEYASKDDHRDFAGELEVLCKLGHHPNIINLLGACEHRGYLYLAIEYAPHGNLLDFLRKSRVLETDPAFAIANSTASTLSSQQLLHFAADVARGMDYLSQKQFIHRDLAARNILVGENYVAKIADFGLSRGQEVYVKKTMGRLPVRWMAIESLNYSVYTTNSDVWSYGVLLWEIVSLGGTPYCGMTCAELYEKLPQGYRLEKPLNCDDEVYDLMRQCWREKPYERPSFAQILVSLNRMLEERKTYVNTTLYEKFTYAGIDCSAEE
The data set can be described thus: TIE-2 spectrophotometric assay. To be noted: Table 5; 1 µM; bold values spectrophotometric assay, non-bolded DELFIA assay (bold not visible here); read-out: % Inhibition @ 1 µM Tie2-P. The format is biochemical. The method in brief: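 Human phosphorylated Tie-2 kinase activity was measured spectrophotometrically by coupling ADP formation, from phosphoryl transfer to poly(Glu4 Tyr), to NADH oxidation via pyruvate kinase and lactate dehydrogenase. Absorbance loss at 340 nm was read on a Beckman DU650. Reactions held 1 mM phosphoenolpyruvate, 0.24 mM NADH, 40 mM MgCl2, 5 mM DTT, 0.5 mM ATP, and 15 units/mL each of PK and LDH in 100 mM HEPES, pH 7.5.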

The target in a further data set is CDK1 (Homo sapiens, UniProt P06493). In words: CDK1 assay (Table 3). The format is biochemical. The settings on record: compound concentration 1 µM, NI = no significant inhibition.
Sequence of CDK1 (P06493 whole entry, species assumed): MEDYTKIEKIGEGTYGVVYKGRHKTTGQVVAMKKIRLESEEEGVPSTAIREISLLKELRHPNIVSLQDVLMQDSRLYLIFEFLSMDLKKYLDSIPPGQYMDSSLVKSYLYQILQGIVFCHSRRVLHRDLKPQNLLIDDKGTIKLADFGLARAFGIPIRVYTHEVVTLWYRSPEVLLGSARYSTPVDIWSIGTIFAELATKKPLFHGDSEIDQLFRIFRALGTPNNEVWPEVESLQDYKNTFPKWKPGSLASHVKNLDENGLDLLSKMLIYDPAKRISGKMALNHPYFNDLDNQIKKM
Sequence of CDK1 (P14635 whole entry partner, species assumed): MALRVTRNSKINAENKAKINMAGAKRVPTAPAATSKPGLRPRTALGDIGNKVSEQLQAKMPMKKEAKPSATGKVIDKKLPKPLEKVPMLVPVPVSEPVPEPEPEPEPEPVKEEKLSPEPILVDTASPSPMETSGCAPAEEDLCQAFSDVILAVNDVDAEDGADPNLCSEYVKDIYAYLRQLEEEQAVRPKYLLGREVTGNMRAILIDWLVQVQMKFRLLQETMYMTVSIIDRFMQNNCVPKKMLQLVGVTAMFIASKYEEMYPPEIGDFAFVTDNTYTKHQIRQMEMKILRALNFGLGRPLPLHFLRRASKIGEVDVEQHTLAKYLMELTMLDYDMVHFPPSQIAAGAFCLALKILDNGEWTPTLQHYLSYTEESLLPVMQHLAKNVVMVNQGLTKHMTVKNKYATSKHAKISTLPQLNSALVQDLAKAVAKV
In the next data set the target is CDK4/Cyclin D3 complex (Homo sapiens, UniProt P11802). The data set can be described thus: biochemical. The settings on record: read-out: CDK4 * (% inhibition).
Sequence of CDK4/Cyclin D3 complex (P11802 whole entry): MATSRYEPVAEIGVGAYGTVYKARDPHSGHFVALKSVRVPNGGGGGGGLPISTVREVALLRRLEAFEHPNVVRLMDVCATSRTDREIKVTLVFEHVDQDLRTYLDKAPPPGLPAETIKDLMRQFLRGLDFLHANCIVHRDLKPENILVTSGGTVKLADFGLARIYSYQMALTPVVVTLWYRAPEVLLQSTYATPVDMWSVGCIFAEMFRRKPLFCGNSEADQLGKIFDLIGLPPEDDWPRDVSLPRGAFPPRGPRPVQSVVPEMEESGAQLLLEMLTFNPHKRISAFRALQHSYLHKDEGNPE
Sequence of CDK4/Cyclin D3 complex (P30281 whole entry partner): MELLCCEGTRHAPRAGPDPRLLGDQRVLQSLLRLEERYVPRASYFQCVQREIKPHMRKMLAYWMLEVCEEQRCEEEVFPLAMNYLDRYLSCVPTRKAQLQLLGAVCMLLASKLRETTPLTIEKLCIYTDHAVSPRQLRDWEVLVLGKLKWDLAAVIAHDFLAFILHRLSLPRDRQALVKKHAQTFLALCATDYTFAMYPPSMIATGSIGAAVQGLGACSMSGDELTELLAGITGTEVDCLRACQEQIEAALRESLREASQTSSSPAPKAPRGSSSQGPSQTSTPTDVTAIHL
The target of data set [2] is unphosphorylated VEGF-R2Δ50 (Homo sapiens, UniProt P35968, DEL940-989/E990V). The data set can be described thus: biochemical. The settings on record: read-out: FLVK* (% inhibition).
Sequence of unphosphorylated VEGF-R2Δ50 (P35968 with tags, fused parts or gaps DEL940-989/E990V limits assumed): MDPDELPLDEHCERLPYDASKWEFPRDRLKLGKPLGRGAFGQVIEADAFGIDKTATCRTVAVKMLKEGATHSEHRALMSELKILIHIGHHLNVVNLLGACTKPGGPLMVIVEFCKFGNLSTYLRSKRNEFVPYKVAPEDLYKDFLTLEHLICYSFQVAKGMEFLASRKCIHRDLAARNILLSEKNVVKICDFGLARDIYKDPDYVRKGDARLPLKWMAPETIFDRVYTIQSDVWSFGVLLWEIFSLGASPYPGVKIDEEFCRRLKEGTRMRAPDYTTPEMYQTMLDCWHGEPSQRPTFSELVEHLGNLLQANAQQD
Data set [3] has as its target phosphorylated VEGF-R2Δ50 (Homo sapiens, UniProt P35968, DEL940-989/E990V). The data set can be described thus: biochemical. To be noted: read-out: FLVK -P** (% inhibition).
Data set [4] has as its system human umbilical vein endothelial cells (HUVEC). In words: HUVEC proliferation assay (VEGF-stimulated, MTT). The settings on record: Homo sapiens, HUVEC, Table 1. The format is cell-based.
For the next data set, the target named is human FGF-R1 (Homo sapiens, UniProt P11362, C488A/C584S/L457V). In words: FGF-R spectrophotometric assay. The format is biochemical. To be noted: Table 1; compound concentration 1 µM; read-out: FGF-P* (% inhibition). On the procedure: The spectrophotometric assay was carried out as described above for VEGF-R2, except for the following changes in concentration: FGF-R = 50 nM, ATP = 2 mM, and poly(E4Y1) =15 mM.
Sequence of human FGF-R1 (P11362 456-766 L457V/C488A/C584S): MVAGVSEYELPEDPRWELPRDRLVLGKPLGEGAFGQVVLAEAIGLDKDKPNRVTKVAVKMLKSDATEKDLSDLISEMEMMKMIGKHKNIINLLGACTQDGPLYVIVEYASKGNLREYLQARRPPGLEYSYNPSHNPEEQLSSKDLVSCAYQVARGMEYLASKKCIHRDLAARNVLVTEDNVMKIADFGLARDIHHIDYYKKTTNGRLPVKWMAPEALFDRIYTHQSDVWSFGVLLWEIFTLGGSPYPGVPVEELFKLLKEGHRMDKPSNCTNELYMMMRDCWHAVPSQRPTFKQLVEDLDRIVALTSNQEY

[5] abbreviates: Table 3, read-out: CDK1* (% inhibition).
Where [6] appears, read: + albumin, read-out: HUVEC + albumin IC50.

Sequence of phosphorylated VEGF-R2Δ50 (P35968 with tags, fused parts or gaps DEL940-989/E990V limits assumed): as the sequence (P35968 with tags, fused parts or gaps DEL940-989/E990V limits assumed) above

Consider `CCn1nc(C)cc1C(=O)Nc1cc(Nc2ccc3c(/C=C/c4ccccn4)n[nH]c3c2)c(F)cc1C` [Example 48(a), 6-[N.(S-((1-Ethyl-3-methyl-1H-pyrazol-5-yl)carboxamido)-2-fluoro-4-methylphenyl)amino]-3-E-[2-(pyridin-2-yl)ethenyl]-1H-indazole], for which the inhibition at 1 µM at human FAK (FAKcd409) was found to be 11%; at CDK2/Cyclin A complex, 0%; on human CHK1 (FL-CHK1) it was 0%; at LCK tyrosine kinase it was 13%; in data set [1], 52%. Moreover, the “% remain (HLM, 2 h)” value in “in vitro” is 55%.
Consider `NC(=O)c1ccc2c(-c3nc4ccccc4[nH]3)n[nH]c2c1` [Example 53(e), 3-(1H-Benzoimidazol-2-yl)-1H-indazole-6-carboxamide], for which, at CDK1 (setting [5]), the inhibition at 1 µM came to 13%.
As to `O=C(Nc1ccc(O)cc1)c1ccc2c(-c3nc4cc(F)c(F)cc4[nH]3)n[nH]c2c1` [Example 54(a), 3-(5,6-Difluoro-1H-benzoimidazol-2-yl)-N-(4-hydroxyphenyl)-1H-indazole-6-carboxamide], the inhibition at 1 µM on CDK1 (setting [5]) came to 1%.
Consider `O=C(Nc1ccc(O)cc1)c1ccc2c(-c3nc4ccc5ccccc5c4[nH]3)n[nH]c2c1` [Example 54(e), 3-[1H-Naphtho(1,2-d)imidazol-2-yl]-N-(4-hydroxyphenyl)-1H-indazole-6-carboxamide], for which the “CDK1* (% inhibition)” value on CDK1 (Table 3) was “Nl @ 1µM”.
In the case of `CC(C)(C)c1ccc2[nH]c(-c3n[nH]c4cc(C(=O)Nc5ccc(O)cc5)ccc34)nc2c1` [Example 54(g), 3-(5-tert-Butyl-1H-benzoimidazol-2-yl)-N-(4-hydroxyphenyl)-1H-indazole-6-carboxamide], the inhibition at 1 µM on CDK1 (setting [5]) is 3%.
For the compound `CCOc1cc(-c2ccc3c(/C=C/c4ccccc4)n[nH]c3c2)ccc1O` [Reference Example 27(h), 6-[3-ethoxy-4-hydroxyphenyl]-3-E-styryl-1H-indazole], the inhibition at 1 µM on CDK1 (setting [5]) came to 84%.
With `OCCOc1cc(-c2ccc3c(/C=C/c4ccccc4)n[nH]c3c2)ccc1O` [Reference Example 27(i), 6-[3-(2-hydroxyethoxy)-4-hydroxyphenyl]-3-E-styryl-1H-indazole], the results for the inhibition at 1 µM at CDK4/Cyclin D3 complex, at CDK1 (setting [5]) and on CDK2/Cyclin A complex were 92%, 85% and 73%, respectively.
On to `Oc1cccc(-c2ccc3c(/C=C/c4ccccc4)n[nH]c3c2)c1` [Reference Example 28(a), 6-(3-hydrophenyl)-3-E-styryl-1H-indazole], for which the inhibition at 1 µM on CDK4/Cyclin D3 complex amounted to 79%; at CDK1 (setting [5]), 77%; in [2], 84%; on CDK2/Cyclin A complex, 75%.
`Oc1ccc(-c2ccc3c(/C=C/c4ccccc4)n[nH]c3c2)cc1O` [Reference Example 28(d), 6-(3,4-dihydroxyphenyl)-3-E-styryl-1H-indazole]: the inhibition at 1 µM on CDK4/Cyclin D3 complex is 87%; at CDK1 (setting [5]) it was 93%; on CDK2/Cyclin A complex, 66%.
For `Clc1ccc(/C=C/c2n[nH]c3cc(-c4ccncc4)ccc23)cc1` [Reference Example 29(c)], the inhibition at 1 µM at CDK1 (read-out: CDK1* (% inhibition), Table 3) was 56%.
Take `Cc1nc(/C=C/c2n[nH]c3cc(-c4ccncc4)ccc23)cs1` [Reference Example 29(j), 6-pyrid-4-yl-3-E-[2-(2-methylthiazol-4-yl)ethenyl]-1H-indazole]: the inhibition at 1 µM on CDK1 (setting [5]) is 31%.
Consider `Fc1cc(F)cc(/C=C/c2n[nH]c3cc(-c4ccncc4)ccc23)c1` [Reference Example 29(m), 6-pyrid-4-yl-3-E-[2-(3,5-difluorophenyl)ethenyl]-1H-indazole], for which the inhibition at 1 µM on CDK1 (setting [5]) was determined as 54%.
On to `FC(F)(F)Oc1cccc(/C=C/c2n[nH]c3cc(-c4ccncc4)ccc23)c1` [Reference Example 29(p), 6-pyrid-4-yl-3-E-[2-(3-trfluorometboxyphenyl)ethenyl]-1H-indazole], for which the inhibition at 1 µM at CDK1 (setting [5]) came out at 6%.
Regarding `O=C(Nc1ccc(N2CCNCC2)c(C(F)(F)F)c1)c1ccccc1Sc1ccc2c(/C=C/c3ccccc3)n[nH]c2c1` [Reference Example 38(b), 6-[2-((4-piperizin-1-yl-3-trifluoromethylphenyl)carbamoyl)phenylsulfanyl]-3-E-(2-styryl)-1H-indazole], in data set [3], the inhibition at 0.05 µM was 72%. For the same compound, the IC50 in [4] (read-out: HUVEC IC50) was 79 nM.
For the compound `O=C(Cc1cc(F)cc(F)c1)Nc1cccc(C(=O)c2ccc3c(/C=C/c4ccccn4)n[nH]c3c2)c1` [Reference Example 41(f), 6-[3-(3,5-difluorophenylacetamido)benzoyl]-3-E-[2-(pyridin-2-yl)ethenyl]-1H-indazole], the results for the inhibition at 1 µM on human FGF-R1 and on LCK tyrosine kinase were 92% and 65%, respectively. In addition, the inhibition at 0.05 µM in data set [3] stood at 84%. The “% remain (HLM, 2 h)” value in “in vitro” came to 59%.
Consider `Cc1cc(C(=O)Nc2cccc(C(=O)c3ccc4c(/C=C/c5ccccn5)n[nH]c4c3)c2)n(C)n1` [Reference Example 41(p), 6-[3-((1,3-Dimethyl-1H-pyrazol-5-yl)carboxamido)benzoyl]-3-E-[2-(pyridin-2-yl)ethenyl]-1H-indazole], for which the inhibition at 1 µM was found to be 3% on CDK4/Cyclin D3 complex; 9% on human FAK (FAKcd409); 6% at CDK2/Cyclin A complex; 0% on human CHK1 (FL-CHK1); 49% on LCK tyrosine kinase; 49% in data set [1]. Moreover, in the data set “in vitro”, the “% remain (HLM, 2 h)” value stood at 62%. The IC50 in data set [4] (setting [6]) stood at 2.6 nM; in data set [4] (read-out: HUVEC IC50) it was 0.27 nM.
For `C=CCn1nc(C)cc1C(=O)Nc1cccc(C(=O)c2ccc3c(/C=C/c4ccccn4)n[nH]c3c2)c1` [Reference Example 41(t), 6-[3-((1-Allyl-3-methyl-1H-pyrazol-5-yl)carboxamido)benzoyl]-3-E-[2-(pyridin-2-yl)ethenyl]-1H-indazole], the inhibition at 1 µM at CDK4/Cyclin D3 complex turned out to be 2%; at human FGF-R1 it was 85%; at human FAK (FAKcd409), 9%; at CDK2/Cyclin A complex it was 1%; on human CHK1 (FL-CHK1), 0%; on LCK tyrosine kinase, 51%. Further, the inhibition at 1 µM in [1] amounted to 51%. The “% remain (HLM, 2 h)” value in “in vitro” is listed as 87%. For the same compound, the concentration for half-maximal inhibition (IC50) in data set [4] (setting [6]) was found to be 3.8 nM.
